# Molecular target: T1, Prostacyclin Receptors (IP Receptors) of Human Thrombocyte Membranes (Homo sapiens, UniProt P43119)
# T1 construct: Thrombocyte membranes are obtained by centrifuging 50 ml human blood; tissue Maco Pharma, Langen; host or cells: human thrombocyte (platelet) membranes prepared from buffy coats
# Test: Binding to prostacyclin receptors (IP receptors) of human thrombocyte membranes, 3H-Iloprost displacement
# Settings: 3 nM 3H-Iloprost, 60 min, room temperature
# Method: B-1. Studies of Binding to Prostacyclin Receptors (IP Receptors) of Human Thrombocyte Membranes
# Thrombocyte membranes are obtained by centrifuging 50 ml human blood (Buffy coats with CDP Stabilizer, from Maco Pharma, Langen) for 20 min at 160×g. Remove the supernatant (platelet-rich plasma, PRP) and then centrifuge again at 2000×g for 10 min at room temperature. Resuspend the sediment in 50 mM tris(hydroxymethyl)aminomethane, which has been adjusted to a pH of 7.4 with 1 N hydrochloric acid, and store at −20° C. overnight. On the next day, centrifuge the suspension at 80 000×g and 4° C. for 30 min. Discard the supernatant. Resuspend the sediment in 50 mM tris(hydroxymethyl)aminomethane/hydrochloric acid, 0.25 mM ethylene diamine tetraacetic acid (EDTA), pH 7.4, and then centrifuge once again at 80 000×g and 4° C. for 30 min. Take up the membrane sediment in binding buffer (50 mM tris(hydroxymethyl)-aminomethane/hydrochloric acid, 5 mM magnesium chloride, pH 7.4) and store at −70° C. until the binding test.
# For the binding test, incubate 3 nM ^3H-Iloprost (592 GBq/mmol, from AmershamBioscience) for 60 min with 300-1000 μg/ml human thrombocyte membranes per charge (max. 0.2 ml) in the presence of the test substances at room temperature. After stopping, add cold binding buffer to the membranes and wash with 0.1% bovine serum albumin. After adding Ultima Gold Scintillator, quantify the radioactivity bound to the membranes using a scintillation counter. The nonspecific binding is defined as radioactivity in the presence of 1 μM Iloprost (from Cayman Chemical, Ann Arbor) and is as a rule <25% of the bound total radioactivity. The binding data (IC50 values) are determined using the program GraphPad Prism Version 3.02.
# T1 sequence (P43119 whole entry): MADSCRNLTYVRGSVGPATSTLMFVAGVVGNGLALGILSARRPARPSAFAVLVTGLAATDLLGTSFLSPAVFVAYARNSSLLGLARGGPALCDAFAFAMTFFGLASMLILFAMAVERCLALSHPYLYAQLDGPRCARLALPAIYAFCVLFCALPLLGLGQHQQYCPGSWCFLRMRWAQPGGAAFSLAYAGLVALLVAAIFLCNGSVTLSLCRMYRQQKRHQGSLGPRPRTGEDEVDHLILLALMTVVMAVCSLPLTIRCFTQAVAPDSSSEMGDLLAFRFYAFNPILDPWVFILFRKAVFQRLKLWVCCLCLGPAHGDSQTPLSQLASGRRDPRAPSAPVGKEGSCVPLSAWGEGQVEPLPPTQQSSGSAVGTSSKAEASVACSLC
row,IC50 [nM],SMILES
1,470,"COC(=O)CCCCCNC(=O)c1c(C)oc(-c2ccccc2)c1-c1ccc(OC)cc1 [Example 4, Methyl 6-({[4-(4-methoxyphenyl)-2-methyl-5-phenylfuran-3-yl]carbonyl}amino)hexanoater]"
2,138,CCc1ccc(-c2c(-c3ccccc3)oc(C)c2C(=O)NCCCCCC(=O)O)cc1 [Example 18]
3,438,COc1ccc(-c2c(-c3ccccc3)oc(C)c2C(=O)Nc2cccc(OCC(=O)O)c2)cc1 [Example 20]
4,315,COc1ccc(-c2c(-c3ccccc3)oc(C)c2C(=O)O[C@H](C)CCCCC(=O)O)cc1 [Example 21]
5,476,COc1ccc(-c2c(-c3ccccc3)oc(C)c2C(=O)NC(C)CCCCC(=O)O)cc1 (stereo not drawn) [Example 24]
6,670,COc1ccc(-c2c(-c3ccccc3)oc(C)c2C(=O)N[C@H](C)CCCCC(=O)O)cc1 [Example 26]

# — patent US20110054017A1, “SUBSTITUTED FURANS AND THEIR USE” (priority 2008, published 2011)
